# Reference: BigSolDB 2.1
compound,measurement,setting,value
Cl.O=C(O)c1cn(-c2ccc(F)cc2)c2cc(N3CCNCC3)c(F)cc2c1=O,solubility (mole fraction),"in DMF, 278.15 K",0.00136
same,solubility (mole fraction),"in DMF, 283.15 K",0.00148
same,solubility (mole fraction),"in DMF, 288.15 K",0.00164
same,solubility (mole fraction),"in DMF, 293.15 K",0.00183
same,solubility (mole fraction),"in DMF, 298.15 K",0.00205
same,solubility (mole fraction),"in DMF, 303.15 K",0.00232
same,solubility (mole fraction),"in DMF, 308.15 K",0.00259
same,solubility (mole fraction),"in DMF, 313.15 K",0.0029
same,solubility (mole fraction),"in DMF, 318.15 K",0.00324
same,solubility (mole fraction),"in DMF, 323.15 K",0.00359
same,solubility (mole fraction),"in DMF, 328.15 K",0.00397
same,solubility (mole fraction),"in DMF, 333.15 K",0.0044
same,solubility (mole fraction),"in acetonitrile, 278.15 K",0.00011
same,solubility (mole fraction),"in acetonitrile, 283.15 K",0.00012
same,solubility (mole fraction),"in acetonitrile, 288.15 K",0.00014
same,solubility (mole fraction),"in acetonitrile, 293.15 K",0.00017
same,solubility (mole fraction),"in acetonitrile, 298.15 K",0.0002
same,solubility (mole fraction),"in acetonitrile, 303.15 K",0.00024
same,solubility (mole fraction),"in acetonitrile, 308.15 K",0.00028
same,solubility (mole fraction),"in acetonitrile, 313.15 K",0.00034
same,solubility (mole fraction),"in acetonitrile, 318.15 K",0.0004
same,solubility (mole fraction),"in acetonitrile, 323.15 K",0.00047
same,solubility (mole fraction),"in acetonitrile, 328.15 K",0.00054
same,solubility (mole fraction),"in acetonitrile, 333.15 K",0.00062
same,solubility (mole fraction),"in ethanol, 278.15 K",0.00019
same,solubility (mole fraction),"in ethanol, 283.15 K",0.00022
same,solubility (mole fraction),"in ethanol, 288.15 K",0.00025
same,solubility (mole fraction),"in ethanol, 293.15 K",0.00029
same,solubility (mole fraction),"in ethanol, 298.15 K",0.00033
same,solubility (mole fraction),"in ethanol, 303.15 K",0.00037
same,solubility (mole fraction),"in ethanol, 308.15 K",0.00043
same,solubility (mole fraction),"in ethanol, 313.15 K",0.00049
same,solubility (mole fraction),"in ethanol, 318.15 K",0.00056
same,solubility (mole fraction),"in ethanol, 323.15 K",0.00064
same,solubility (mole fraction),"in ethanol, 328.15 K",0.00072
same,solubility (mole fraction),"in ethanol, 333.15 K",0.0008
same,solubility (mole fraction),"in ethyl acetate, 278.15 K",0.0038
same,solubility (mole fraction),"in ethyl acetate, 283.15 K",0.00422
same,solubility (mole fraction),"in ethyl acetate, 288.15 K",0.00476
same,solubility (mole fraction),"in ethyl acetate, 293.15 K",0.00539
same,solubility (mole fraction),"in ethyl acetate, 298.15 K",0.00627
same,solubility (mole fraction),"in ethyl acetate, 303.15 K",0.00719
same,solubility (mole fraction),"in ethyl acetate, 308.15 K",0.00831
same,solubility (mole fraction),"in ethyl acetate, 313.15 K",0.00961
same,solubility (mole fraction),"in ethyl acetate, 318.15 K",0.0109
same,solubility (mole fraction),"in ethyl acetate, 323.15 K",0.0126
same,solubility (mole fraction),"in ethyl acetate, 328.15 K",0.0144
same,solubility (mole fraction),"in ethyl acetate, 333.15 K",0.0163
same,solubility (mole fraction),"in isopropanol, 278.15 K",0.00047
same,solubility (mole fraction),"in isopropanol, 283.15 K",0.00059
same,solubility (mole fraction),"in isopropanol, 288.15 K",0.00072
same,solubility (mole fraction),"in isopropanol, 293.15 K",0.00083
same,solubility (mole fraction),"in isopropanol, 298.15 K",0.00098
same,solubility (mole fraction),"in isopropanol, 303.15 K",0.0011
same,solubility (mole fraction),"in isopropanol, 308.15 K",0.00123
same,solubility (mole fraction),"in isopropanol, 313.15 K",0.00134
same,solubility (mole fraction),"in isopropanol, 318.15 K",0.00147
same,solubility (mole fraction),"in isopropanol, 323.15 K",0.00161
same,solubility (mole fraction),"in isopropanol, 328.15 K",0.00172
same,solubility (mole fraction),"in isopropanol, 333.15 K",0.00185
same,solubility (mole fraction),"in methanol, 278.15 K",0.00181
same,solubility (mole fraction),"in methanol, 283.15 K",0.00194
same,solubility (mole fraction),"in methanol, 288.15 K",0.00211
same,solubility (mole fraction),"in methanol, 293.15 K",0.00234
same,solubility (mole fraction),"in methanol, 298.15 K",0.00262
same,solubility (mole fraction),"in methanol, 303.15 K",0.00294
same,solubility (mole fraction),"in methanol, 308.15 K",0.0033
same,solubility (mole fraction),"in methanol, 313.15 K",0.00369
same,solubility (mole fraction),"in methanol, 318.15 K",0.00411
same,solubility (mole fraction),"in methanol, 323.15 K",0.00457
same,solubility (mole fraction),"in methanol, 328.15 K",0.00502
same,solubility (mole fraction),"in methanol, 333.15 K",0.00549
same,solubility (mole fraction),"in n-butanol, 278.15 K",0.00148
same,solubility (mole fraction),"in n-butanol, 283.15 K",0.00162
same,solubility (mole fraction),"in n-butanol, 288.15 K",0.00179
same,solubility (mole fraction),"in n-butanol, 293.15 K",0.00202
same,solubility (mole fraction),"in n-butanol, 298.15 K",0.00224
same,solubility (mole fraction),"in n-butanol, 303.15 K",0.0025
same,solubility (mole fraction),"in n-butanol, 308.15 K",0.00281
same,solubility (mole fraction),"in n-butanol, 313.15 K",0.00312
same,solubility (mole fraction),"in n-butanol, 318.15 K",0.00344
same,solubility (mole fraction),"in n-butanol, 323.15 K",0.00379
same,solubility (mole fraction),"in n-butanol, 328.15 K",0.00419
same,solubility (mole fraction),"in n-butanol, 333.15 K",0.00463
same,solubility (mole fraction),"in n-hexane, 278.15 K",0.00029
same,solubility (mole fraction),"in n-hexane, 283.15 K",0.00033
same,solubility (mole fraction),"in n-hexane, 288.15 K",0.00038
same,solubility (mole fraction),"in n-hexane, 293.15 K",0.00044
same,solubility (mole fraction),"in n-hexane, 298.15 K",0.00053
same,solubility (mole fraction),"in n-hexane, 303.15 K",0.00063
same,solubility (mole fraction),"in n-hexane, 308.15 K",0.00075
same,solubility (mole fraction),"in n-hexane, 313.15 K",0.00089
same,solubility (mole fraction),"in n-hexane, 318.15 K",0.00105
same,solubility (mole fraction),"in n-hexane, 323.15 K",0.0012
same,solubility (mole fraction),"in n-hexane, 328.15 K",0.00137
same,solubility (mole fraction),"in n-hexane, 333.15 K",0.00155
